The values that follow come from ChEMBL document CHEMBL4184333, “Expanding Benzoxazole-Based Inosine 5'-Monophosphate Dehydrogenase (IMPDH) Inhibitor Structure-Activity As Potential Antituberculosis Agents” (J Med Chem, 2018).

In brackets after ≈: the same amount, converted by molar mass.

The subject of the test is Mycobacterium tuberculosis. Nature of the test: Antitubercular activity against Mycobacterium tuberculosis SRMV2.6 harboring IMPDH2 Y487C mutant using 7H9/ADC/Tween medium after 1 week in absence of guanine by Alamar blue assay. In kind it is functional. A general note: The colour change of resazurin is a common sign of viable cells or microbes.
With `COc1ccc(OC(C)C(=O)Nc2ccc3oc(-c4ccncc4)nc3c2)cc1` (centres undefined), the minimal inhibitory concentration (MIC) (commonly the lowest concentration that inhibits growth of the organism) was over 100 µM.
With `C[C@H](Nc1cccc(F)c1F)C(=O)Nc1ccc2oc(-c3ccc(C#N)cc3)nc2c1` the figure was over 100 µM.
With `CCOC(=O)COc1ccc(-c2nc3cc(NC(=O)[C@H](C)Oc4cccc(Cl)c4Cl)ccc3o2)cc1` the figure was 3.1 µM (≈ 1.64 µg/mL).
Regarding `C[C@H](Oc1cccc(Cl)c1Cl)C(=O)Nc1ccc2oc(-c3ccc(C(=O)O)cc3)nc2c1`, the MIC turned out to be 25 µM (≈ 11.8 µg/mL).
